The values below come from patent US20250026766A1, “Thiazolopyridyl Amide Derivatives as DNA Polymerase Theta Inhibitors” (BeiGene, Ltd., priority 2022, published 2025).

SMILES strings stand for the structures.

The target of this assay is Pol Theta (1-894) (Homo sapiens (Human), UniProt O75417). Description: Biochemical Pol Theta (1-894) ATPase IC50 assay (ADP-Glo, ssDNA substrate). The note with it: ADP-Glo assay with ssDNA substrate, room temperature. Here is the method: Baculovirus Expression of Human POL theta (1-894)
Chain of Pol Theta (1-894) (O75417 1-894): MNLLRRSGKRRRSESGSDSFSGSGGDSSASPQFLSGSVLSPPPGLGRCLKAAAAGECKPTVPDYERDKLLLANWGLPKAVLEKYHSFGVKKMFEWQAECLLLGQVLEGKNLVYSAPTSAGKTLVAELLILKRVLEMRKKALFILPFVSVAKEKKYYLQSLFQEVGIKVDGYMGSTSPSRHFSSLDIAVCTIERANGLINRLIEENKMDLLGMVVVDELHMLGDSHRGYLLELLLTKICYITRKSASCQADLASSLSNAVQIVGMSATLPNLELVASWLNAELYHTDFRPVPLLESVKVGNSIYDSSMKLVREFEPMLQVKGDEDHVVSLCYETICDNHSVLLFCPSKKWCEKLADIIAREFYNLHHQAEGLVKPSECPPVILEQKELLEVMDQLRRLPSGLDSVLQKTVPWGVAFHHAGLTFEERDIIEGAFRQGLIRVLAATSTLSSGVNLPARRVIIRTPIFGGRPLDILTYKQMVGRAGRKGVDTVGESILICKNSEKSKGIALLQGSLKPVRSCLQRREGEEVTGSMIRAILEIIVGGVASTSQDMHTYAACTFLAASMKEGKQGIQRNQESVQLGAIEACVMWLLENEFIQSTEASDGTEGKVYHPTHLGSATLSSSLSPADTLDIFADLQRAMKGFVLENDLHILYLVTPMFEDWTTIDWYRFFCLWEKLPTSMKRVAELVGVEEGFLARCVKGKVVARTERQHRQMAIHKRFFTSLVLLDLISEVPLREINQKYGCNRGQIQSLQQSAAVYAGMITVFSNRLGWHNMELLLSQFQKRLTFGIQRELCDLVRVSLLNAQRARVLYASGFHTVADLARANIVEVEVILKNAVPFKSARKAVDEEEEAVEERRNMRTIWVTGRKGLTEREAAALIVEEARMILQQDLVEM
Human POL Theta (1-894)-His-pFastBac1 baculovirus samples were generated using the Bac-to-Bac baculovirus expression system (Invitrogen) according to the manufacturer's protocol. […] Baculovirus amplification was achieved using infected SF9 cells at 1:2000 virus/cells ratios, and grown for 96 hours at 27° C. post-transfection. The expression scaled up for each protein was carried out in the flask 3 L from CORNING. 4 L of 3×10^6 cells/mL Sf9 cells (Expression System, Invitrogen) grown in SF900TM II SFM insect medium (Expression System) were infected with virus stock at 1:200 virus/cell ratios, and grown for 48 hours at 27° C. post-transfection. The infected cell culture was harvested by centrifugation at 6000 rpm for 15 min 4° C. in a SORVALL LYNX6000 centrifuge. The cell pellets were stored at −80° C.
The human POL Theta (1-894)-His produced as described above, were purified from Sf9 baculovirus-infected insect cell paste. The cells were lysed using sonication method, and the lysates were clarified by centrifugation.
Enzymatic reactions of Pol Theta (1-894) were performed using ADP-Glo assay with ssDNA substrate. Pol Theta (1-894) was expressed in baculovirus expression system. The inhibition activities testing for the compound disclosed herein were carried out at room temperature in assay buffer containing 40 mM Tris pH 7.5, 20 mM MgCl2, 1 mM DTT, 0.01% BSA and 0.05% Tween-20. Compounds in DMSO were dispensed into wells of a black 384 well plate (Corning 4514) using D300e digital dispenser (Tecan). The ranges of compounds final concentration were 2.62 nM˜10000 nM. 3 μL 2× enzyme solution containing 12.5 nM enzyme was added to wells. […] After 1 hour reaction, 5 μL ADP-Glo reagent (Promga V9102) was added and incubated for 40 minutes. 10 μL Kinase Detection reagent was added and incubated for 40 minutes. Luminescence was measured on a microplate reader (PHERAstar FSX, BMG labtech). The IC50 values were calculated based on inhibition of enzyme activity in the presence of increasing concentrations of compounds.
For orientation: ADP-Glo turns the ADP formed in a reaction into a luminescent signal.
As for `COc1cccc(F)c1-c1cnccc1C(=O)Nc1nc2ccc(-c3ccc(NC(C)=O)cc3)nc2s1` [Example 31, N-(5-(4-acetamidophenyl)thiazolo[5,4-b]pyridin-2-yl)-3-(2-fluoro-6-methoxyphenyl)isonicotinamide], the half-inhibitory concentration (IC50) (in general, the midpoint of a concentration-inhibition curve) is 70 nM. In the case of `COc1ccc(C#N)cc1-c1cc(C)ncc1C(=O)Nc1nc2ccc(-c3ccc(N(C)S(C)(=O)=O)cc3)nc2s1` [Example 32, 4-(5-cyano-2-methoxyphenyl)-6-methyl-N-(5-(4-(N-methylmethylsulfonamido)phenyl)thiazolo[5,4-b]pyridin-2-yl)nicotinamide] it was 26 nM; in that of `COc1ccc(C#N)cc1-c1cc(Cl)ncc1C(=O)Nc1nc2ccc(-c3ccc(C#N)cc3)nc2s1` [Example 33, 6-chloro-4-(5-cyano-2-methoxyphenyl)-N-(5-(4-cyanophenyl)thiazolo[5,4-b]pyridin-2-yl)nicotinamide], 8.5 nM. For `COc1ccc(C#N)cc1-c1cc(CC#N)ncc1C(=O)Nc1nc2ccc(-c3ccc(C#N)cc3)nc2s1` [Example 34, 4-(5-cyano-2-methoxyphenyl)-6-(cyanomethyl)-N-(5-(4-cyanophenyl)thiazolo[5,4-b]pyridin-2-yl)nicotinamide] the value was 16 nM. `CCS(=O)(=O)Nc1ccc(-c2ccc3nc(NC(=O)c4cnc(C)cc4-c4cc(C#N)ccc4OC)sc3n2)cc1` [Example 35, 4-(5-cyano-2-methoxyphenyl)-N-(5-(4-(ethylsulfonamido)phenyl)thiazolo[5,4-b]pyridin-2-yl)-6-methylnicotinamide] returned a half-inhibitory concentration (IC50) of 94 nM. In the case of `COc1ccc(C#N)cc1-c1cc(C#N)ncc1C(=O)Nc1nc2ccc(-c3ccc(NC(C)=O)cc3)nc2s1` [Example 36, N-(5-(4-acetamidophenyl)thiazolo[5,4-b]pyridin-2-yl)-6-cyano-4-(5-cyano-2-methoxyphenyl)nicotinamide] it was 73 nM; in that of `COc1ccc(C#N)cc1-c1cc(C(F)(F)F)ncc1C(=O)Nc1nc2ccc(-c3ccc(C#N)cc3)nc2s1` [Example 37, 4-(5-cyano-2-methoxyphenyl)-N-(5-(4-cyanophenyl)thiazolo[5,4-b]pyridin-2-yl)-6-(trifluoromethyl)nicotinamide], 151 nM.

As for `COc1ccc(C#N)cc1-c1ccncc1C(=O)Nc1nc2ccc(-c3ccc(C#N)cc3)nc2s1` [Example 38, 4-(5-cyano-2-methoxyphenyl)-N-(5-(4-cyanophenyl)thiazolo[5,4-b]pyridin-2-yl)nicotinamide], the concentration for half-maximal inhibition (IC50) was 11 nM.

Turning to `COc1ccc(C#N)cc1-c1cc(F)ncc1C(=O)Nc1nc2ccc(-c3ccc(C#N)cc3)nc2s1` [Example 39, 4-(5-cyano-2-methoxyphenyl)-N-(5-(4-cyanophenyl)thiazolo[5,4-b]pyridin-2-yl)-6-fluoronicotinamide], the half-inhibitory concentration (IC50) was found to be 73 nM. This IC50 is about 6.6-fold higher than that of the compound before. In the case of `COc1ccc(C#N)cc1-c1cc(C)ncc1C(=O)Nc1nc2ccc(-c3ccc(C(F)(F)F)cc3)nc2s1` [Example 40, 4-(5-cyano-2-methoxyphenyl)-6-methyl-N-(5-(4-(trifluoromethyl)phenyl)thiazolo[5,4-b]pyridin-2-yl)nicotinamide] it was 87 nM.

Turning to `CCC(=O)Nc1ccc(-c2ccc3nc(NC(=O)c4cnc(C)cc4-c4cc(C#N)ccc4OC)sc3n2)cc1` [Example 41, 4-(5-cyano-2-methoxyphenyl)-6-methyl-N-(5-(4-propionamidophenyl)thiazolo[5,4-b]pyridin-2-yl)nicotinamide], the half-maximal inhibitory concentration (IC50) came out at 91 nM. This IC50 and that of the compound before are within 1.5-fold of each other. The compound `COc1ccc(C#N)cc1-c1cc(C)ncc1C(=O)Nc1nc2ccc(-c3ccc(NC(=O)CO)cc3)nc2s1` [Example 42, 4-(5-cyano-2-methoxyphenyl)-N-(5-(4-(2-hydroxyacetamido)phenyl)thiazolo[5,4-b]pyridin-2-yl)-6-methylnicotinamide] registered an IC50 of 65 nM. For the compound `COc1ccc(C#N)cc1-c1cc(C)ncc1C(=O)Nc1nc2ccc(-c3ccc(N4CCOC4=O)cc3)nc2s1` [Example 43, 4-(5-cyano-2-methoxyphenyl)-6-methyl-N-(5-(4-(2-oxooxazolidin-3-yl)phenyl)thiazolo[5,4-b]pyridin-2-yl)nicotinamide], the IC50 came to 75 nM. `COc1ccc(C#N)cc1-c1cc(C)ncc1C(=O)Nc1nc2ccc(-c3ccc(CO)cc3)nc2s1` [Example 44, 4-(5-cyano-2-methoxyphenyl)-N-(5-(4-(hydroxymethyl)phenyl)thiazolo[5,4-b]pyridin-2-yl)-6-methylnicotinamide] returned a half-inhibitory concentration (IC50) of 14 nM. Compound `COc1ccc(C#N)cc1-c1cc(C)ncc1C(=O)Nc1nc2ccc(-c3ccc(N4CCCC4=O)cc3)nc2s1` [Example 45, 4-(5-cyano-2-methoxyphenyl)-6-methyl-N-(5-(4-(2-oxopyrrolidin-1-yl)phenyl)thiazolo[5,4-b]pyridin-2-yl)nicotinamide] yielded a concentration for half-maximal inhibition (IC50) of 32 nM. For `COc1ccccc1-c1cc(C(=O)O)ncc1C(=O)Nc1nc2ccc(-c3ccc(NC(C)=O)cc3)nc2s1` [Example 46, 5-((5-(4-acetamidophenyl)thiazolo[5,4-b]pyridin-2-yl)carbamoyl)-4-(2-methoxyphenyl)picolinic acid] the value was 129 nM. Compound `COc1ccccc1-c1cnncc1C(=O)Nc1nc2ccc(-c3ccn[nH]3)nc2s1` [Example 47, N-(5-(1H-pyrazol-5-yl)thiazolo[5,4-b]pyridin-2-yl)-5-(2-methoxyphenyl)pyridazine-4-carboxamide] yielded a concentration for half-maximal inhibition (IC50) of 99 nM. This IC50 and that of the compound before are within 1.5-fold of each other.

For the compound `COc1ccccc1-c1cnncc1C(=O)Nc1nc2ccc(-c3ccc(NS(C)(=O)=O)cc3)nc2s1` [Example 48, 5-(2-methoxyphenyl)-N-(5-(4-(methylsulfonamido)phenyl)thiazolo[5,4-b]pyridin-2-yl)pyridazine-4-carboxamide], the half-maximal inhibitory concentration (IC50) was found to be 9.5 nM.

Regarding `COc1ccc(OC)c(-c2cc(C)ncc2C(=O)Nc2nc3ccc(-c4ccc(C#N)cc4)nc3s2)c1` [Example 49, N-(5-(4-cyanophenyl)thiazolo[5,4-b]pyridin-2-yl)-4-(2,5-dimethoxyphenyl)-6-methylnicotinamide], the IC50 was 150 nM. The compound `COc1ccc(C#N)cc1-c1cc(C)ncc1C(=O)Nc1nc2ccc(-c3ccc(NC(=O)C(C)C)cc3)nc2s1` [Example 50, 4-(5-cyano-2-methoxyphenyl)-N-(5-(4-isobutyramidophenyl)thiazolo[5,4-b]pyridin-2-yl)-6-methylnicotinamide] had an IC50 of 218 nM.

`COc1ccc(C#N)cc1-c1cc(C)ncc1C(=O)Nc1nc2ccc(-c3ccc(NC(=O)C(C)C)c(C)c3)nc2s1` [Example 51, 4-(5-cyano-2-methoxyphenyl)-N-(5-(4-isobutyramido-3-methylphenyl)thiazolo[5,4-b]pyridin-2-yl)-6-methylnicotinamide] showed an IC50 of 15 nM. In the case of `COc1ccc(S(C)(=O)=O)cc1-c1cc(C)ncc1C(=O)Nc1nc2ccc(-c3ccc(C#N)cc3)nc2s1` [Example 52, N-(5-(4-cyanophenyl)thiazolo[5,4-b]pyridin-2-yl)-4-(2-methoxy-5-(methylsulfonyl)phenyl)-6-methylnicotinamide] it was 8.4 nM; in that of `Cc1cc(-c2ccccc2C#N)c(C(=O)Nc2nc3ccc(-c4ccc(C#N)cc4)nc3s2)cn1` [Example 53, 4-(2-cyanophenyl)-N-(5-(4-cyanophenyl)thiazolo[5,4-b]pyridin-2-yl)-6-methylnicotinamide], 78 nM; in that of `Cc1cc(-c2ccc(=O)n(C)c2)c(C(=O)Nc2nc3ccc(-c4ccc(C#N)cc4)nc3s2)cn1` [Example 54, N-(5-(4-cyanophenyl)thiazolo[5,4-b]pyridin-2-yl)-1,6′-dimethyl-6-oxo-1,6-dihydro-[3,4′-bipyridine]-3′-carboxamide], 64 nM. In the case of `COc1ccccc1-c1cnncc1C(=O)Nc1nc2ccc(-c3ccc(Cl)cn3)nc2s1` [Example 55, N-(5-(5-chloropyridin-2-yl)thiazolo[5,4-b]pyridin-2-yl)-5-(2-methoxyphenyl)pyridazine-4-carboxamide] it was 5 nM. With `COc1ccccc1-c1cnncc1C(=O)Nc1nc2ccc(-c3ccc(N(C)C(C)=O)cc3)nc2s1` [Example 56, 5-(2-methoxyphenyl)-N-(5-(4-(N-methylacetamido)phenyl)thiazolo[5,4-b]pyridin-2-yl)pyridazine-4-carboxamide], the midpoint of inhibition, the IC50, lay at 15 nM. Compound `COc1ccc(C2CC2)cc1-c1cc(C)ncc1C(=O)Nc1nc2ccc(-c3ccc(C#N)cc3)nc2s1` [Example 57, N-(5-(4-cyanophenyl)thiazolo[5,4-b]pyridin-2-yl)-4-(5-cyclopropyl-2-methoxyphenyl)-6-methylnicotinamide] registered a half-inhibitory concentration (IC50) of 58 nM. For `COc1ccc(C#N)cc1-c1cc(Cl)ncc1C(=O)Nc1nc2ccc(-c3ccc(N4CCOCC4)cc3)nc2s1` [Example 58, 6-chloro-4-(5-cyano-2-methoxyphenyl)-N-(5-(4-morpholinophenyl)thiazolo[5,4-b]pyridin-2-yl)nicotinamide] the value was 101 nM.
